Tests used:
[1] = test system: cardiomyocytes of newborn mice; test: Mouse pharmacological treatment of newborn mice: binucleated cardiomyocytes, cardiomyocyte endowment, cell cycle activity, heart weight; type: in vivo; conditions: for increase of cardiomyocyte endowment: counting fixation-digested hearts, FIG. 12D
Description: […] An equal volume of phosphate buffered saline (PBS) was injected in the control groups.
Isolation of intact cardiomyocytes for quantification: We used a previously validated fixation digestion method to isolate intact cardiomyocytes from fresh or frozen myocardium for quantification (Mollova, M., et al. “Cardiomyocyte proliferation in human heart growth” Proceedings of the National Academy of Sciences January 2013, 110 (4) 1446-1451; DOI: 10.1073/pnas.1214608110). The myocardium was cut into 1 cubic millimeter (mm^3) sized tissue blocks followed by incubation with 3.7% formaldehyde at room temperature for 1.8 hours. After being washed with PBS 3 times to remove the formaldehyde, the fixed tissue blocks were digested in enzyme solution (Collagenase B, 3.6 mg/ml; Collagenase D, 4.8 mg/ml) at 37 degrees Celsius (° C.), with 10 revolutions per minute (rpm) overhead rotation. The digested cells were collected every 24 hours from the supernatant, and the undigested tissue was re-suspended with fresh enzyme solution until all of the tissue pieces were digested. All of the digested cells from the same heart were then combined and allowed to settle to the bottom of the tube. The cell pellet was collected for further study.
Counting of cardiomyocytes after fixation and digestion: All fractions from the digestion of a heart were combined in 2 milliliters (mL) PBS and cardiomyocytes were quantified using a hemocytometer.
Intact cardiomyocytes in suspension. To assess M-phase, intact cardiomyocytes were isolated by fixation-digestion. The solution containing the stained cells was then transferred to 8-well chambered cover glass (400 μl/well). After the cells were settled down to the bottom of the chambers, the number of mono/bi/multinucleated cardiomyocytes were counted with a fluorescence microscope, and the percentage of mono/bi/multinucleated cardiomyocytes was calculated. To quantify the proportion of H3P-positive cardiomyocytes, the concentration of stained cardiomyocytes in suspension (Ccardiomyocytes) was first measured using a hemocytometer. The cell suspension (400 μl) was then transferred to a well of a chamber slide, and the total number of H3P-positive cardiomyocytes (HH3P+) inside the well was counted with a TiE epifluorescence microscope. The proportion of the H3P-positive cardiomyocytes (PH3P+) was calculated using the following formula: […]
Heart sections: To determine S-phase, BrdU (40 μg/g body) was administered to P7 ICR mice and the hearts were resected at P8, fixed, and cryosectioned at 15 μm thickness. From each heart, four heart sections at a distance of 300 μm were selected and imaged by tile scanning with a Nikon A1R confocal microscope. The total number of BrdU-positive cardiomyocytes at the selected heart sections was counted. The total area of the selected heart sections was measured by Fiji software. The density of BrdU-positive cardiomyocytes (cells/mm^2) in the hearts was calculated using the following equation: […]
Intact cardiomyocytes in suspension. Cardiomyocytes were isolated from fresh or frozen (human or mouse) ventricle myocardium using the fixation-digestion method, followed by immunostaining as described above. The cells were then imaged and quantified with a Nikon A1R microscope for mono/bi/multi-nucleation.

[2] = test system: human fetal cardiomyocytes; test: Cytokinesis failure in cultured human fetal cardiomyocytes (β-adrenergic receptor signaling pathway studies); type: cell-based
Description: Primary cardiomyocyte culture experiments: Neonatal (mouse or rat) cardiomyocytes or human fetal cardiomyocytes were plated in 4-well chamber slides pre-coated with fibronectin (10 μg/ml) at a density of 200,000 cells/well and cultured with DMEM/high glucose (for mouse and rat cardiomyocytes) or IMDM (for fetal human cardiomyocytes) containing 10% fetal bovine serum (FBS) and recombinant neuregulin 1 (rNRG1, 100 nanograms per milliliter (ng/ml)) overnight. All treatments and BrdU (30 micromolar (μM)) were added on the next day.
β-adrenergic receptor signaling pathway studies: Forskolin (10 μM), propranolol (10 μM), dobutamine (10 μM), or a combination of propranolol (10 μM) and dobutamine (10 μM) were added to the culture from day 1 to day 3. The cells were collected for examining gene expression or immunofluorescence microscopy at day 3.
Cardiomyocytes cultured on glass surfaces. […] The BrdU-positive nuclei, cell-cell boundaries (Pan-Cadherin antibody), and cardiomyocyte markers (α-actinin or troponin I antibody) were labeled by immunofluorescence. The stained cells were imaged under Nikon confocal microscope. The binucleated cardiomyocytes and all BrdU-positive cardiomyocytes were quantified using Fiji software.

[3] = test system: cardiomyocytes from infants with ToF/PS; test: ToF/PS myocardium tissue (organotypic) culture: binucleated BrdU-labeled cardiomyocytes; type: cell-based, human; conditions: propranolol 10 μM + dobutamine 10 μM, ToF/PS organotypic cultures, FIG. 14E
Description: ToF/PS myocardium tissue culture: Discarded myocardium samples were collected during ToF/PS surgery, cut into ˜1 mm^3 tissue blocks, and cultured in IMDM media containing 10% FBS, recombinant neuregulin 1 (rNRG1, 100 ng/ml), and BrdU (30 μM) for 6 days. Samples were treated with forskolin (10 μM), propranolol (10 μM), dobutamine (10 μM), or a combination of propranolol (10 μM) and dobutamine (10 μM).
Cultured ToF/PS myocardium. Cardiomyocytes were isolated from cultured myocardium with the fixation-digestion method. After denaturing the DNA with 2N HCl and neutralization with 2 Normal (N) sodium hydroxide (NaOH), immunofluorescence antibody labeling was performed in solution. The proportion of binucleated and BrdU-positive was quantified with a Nikon A1R microscope.

Q: Which results are given for `CC(C)NCC(O)COc1cccc2ccccc12` (centres unmarked) [propranolol, 1-naphthalen-1-yloxy-3-(propan-2-ylamino)propan-2-ol]?
A: fewer cardiomyocytes undergoing cytokinesis failure than PBS-treated pups ([1]; at P8): 13.6%; additional cardiomyocytes predicted to be generated by enabling completion of cytokinesis ([1]; at P8, back-of-the-envelope calculation from endowment of PBS-treated pups at P4): 0.22×10^6 cardiomyocytes; propranolol-induced increase of endowment between P4 and P8 (treated minus PBS) ([1]; calculated from the counts): 0.18×10^6 cardiomyocytes; heart weight ([1]; newborn mice, 2 i.p. injections per day, FIG. 16A, 16B): not changed; increase of cardiomyocyte endowment ([1]; newborn mice, at P4, 10 μg/g, 2 i.p. injections per day): 22%; increase of cardiomyocyte endowment ([1]; newborn mice, at P8, 2 i.p. injections per day, 12H): 30%; cardiomyocyte cell cycle entry (quantified by BrdU uptake) ([1]; newborn mice, at P8, FIG. 12E): without a change; progression to M-phase (quantified by H3P-staining) ([1]; newborn mice, at P8, FIG. 12F): without a change; decrease of the proportion of binucleated cardiomyocytes ([1]; newborn mice, treatment from P1 to P4, 10 μg/g, 2 i.p. injections per day, FIG. 12C): 21%; decrease of the proportion/formation of binucleated cardiomyocytes ([1]; newborn mice, treatment from P1 to P8, 2 i.p. injections per day (propranolol 10 μg/g; alprenolol 10 μg/g, 40 μg/g), FIG. 12C, 12G): 17%; increase of cardiomyocyte endowment between P4 and P8 in treated pups ([1]; propranolol-treated pups, from counts): 0.35×10^6 cardiomyocytes; Ect2-positive midbodies ([2]; human fetal cardiomyocytes in cytokinesis, immunofluorescence microscopy, FIG. 14D): increased; block of the dobutamine-stimulated increase in cardiomyocyte cytokinesis failure ([2]; propranolol 10 μM + dobutamine 10 μM, human fetal cardiomyocytes, FIG. 14C): completely; inhibition of the dobutamine-stimulated increase in binucleated cardiomyocytes [3]: completely
